The record followed here is article PMC7144323, “S-substituted 2-mercaptoquinazolin-4(3H)-one and 4-ethylbenzensulfonamides act as potent and selective human carbonic anhydrase IX and XII inhibitors” (Journal of Enzyme Inhibition and Medicinal Chemistry, 2020).

What is called Ki is a measure of affinity in units of concentration, obtained from inhibition or displacement. Read a low Ki as a stronger hold on the target.

Read-outs that look alike come from different tables or passages of the source.

Common to all, as to assay: stopped-flow CA inhibition assay
Format in all cases: biochemical

Assay [1] deals with T1, hCA IX (Homo sapiens, UniProt Q16790).
T1 construct: gene CA9; recombinant, obtained in-house
From the text: stopped-flow CA inhibition assay on hCA IX

Assay [2] deals with T2, hCA XII (Homo sapiens, UniProt O43570).
T2 construct: gene CA12; recombinant, obtained in-house
From the text:
stopped-flow CA inhibition assay on hCA XII

In assay [3] the target is T3, hCA I (Homo sapiens, UniProt P00915).
T3 construct: gene CA1; recombinant, obtained in-house
The text has this:
stopped-flow CA inhibition assay on hCA I

For assay [4], the target named is T4, hCA II (Homo sapiens, UniProt P00918).
T4 construct: gene CA2; recombinant, obtained in-house
From the text:
stopped-flow CA inhibition assay on hCA II

T2 sequence (O43570 25-354): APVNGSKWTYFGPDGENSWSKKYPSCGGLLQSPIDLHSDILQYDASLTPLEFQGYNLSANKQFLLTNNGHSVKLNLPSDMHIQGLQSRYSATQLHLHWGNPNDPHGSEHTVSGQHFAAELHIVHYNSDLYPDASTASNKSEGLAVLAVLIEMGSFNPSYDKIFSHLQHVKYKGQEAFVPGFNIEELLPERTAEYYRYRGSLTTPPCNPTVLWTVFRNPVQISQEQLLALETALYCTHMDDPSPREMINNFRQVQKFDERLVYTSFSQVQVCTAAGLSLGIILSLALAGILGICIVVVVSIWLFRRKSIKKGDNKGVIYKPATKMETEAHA
T3 sequence (P00915 2-261): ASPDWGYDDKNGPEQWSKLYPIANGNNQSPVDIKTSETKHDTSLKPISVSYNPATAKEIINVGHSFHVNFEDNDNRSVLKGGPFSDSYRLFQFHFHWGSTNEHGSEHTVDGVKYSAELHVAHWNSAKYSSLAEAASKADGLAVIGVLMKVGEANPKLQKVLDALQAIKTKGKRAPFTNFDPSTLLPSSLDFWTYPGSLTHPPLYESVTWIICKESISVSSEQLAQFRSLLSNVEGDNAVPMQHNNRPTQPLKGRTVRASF

For the compound `NS(=O)(=O)c1ccc(CCn2c(SCC(=O)c3ccccc3)nc3ccccc3c2=O)cc1` [compound 2, 4-(2-(4-Oxo-2-((2-oxo-2-phenylethyl)thio)quinazolin-3(4H)-yl)ethyl)benzenesulfonamide], the Ki in assay [1] was 40.7 nM; in assay [2], 13 nM; in assay [3] it was 593 nM.

Turning to `NS(=O)(=O)c1ccc(CCn2c(SCC(=O)c3ccc(Br)cc3)nc3ccccc3c2=O)cc1` [compound 3, 4-(2-(2-((2-(4-Bromophenyl)-2-oxoethyl)thio)-4-oxoquinazolin-3(4H)-yl)ethyl)benzenesulfonamide], the Ki in assay [1] was determined as 75.2 nM; in assay [2] it was 69.6 nM; in assay [3], 1450 nM.

As to `NS(=O)(=O)c1ccc(CCn2c(SCC(=O)c3ccc(Cl)cc3)nc3ccccc3c2=O)cc1` [compound 4, 4-(2-(2-((2-(4-Chlorophenyl)-2-oxoethyl)thio)-4-oxoquinazolin-3(4H)-yl)ethyl)benzenesulfonamide], the Ki in assay [1] (mean of […] assays, errors ±[…]) came out at 8 nM; in assay [2] (mean of […] assays, errors ±[…]), 10.8 nM.

For the compound `NS(=O)(=O)c1ccc(CCn2c(SCC(=O)c3ccc(F)cc3)nc3ccccc3c2=O)cc1` [compound 5, 4-(2-(2-((2-(4-Fluorophenyl)-2-oxoethyl)thio)-4-oxoquinazolin-3(4H)-yl)ethyl)benzenesulfonamide], the Ki in assay [1] (mean of […] assays, errors ±[…]) amounted to 16.5 nM; in assay [2], 9.1 nM; in assay [3] it was 400 nM.

With `Cc1ccc(C(=O)CSc2nc3ccccc3c(=O)n2CCc2ccc(S(N)(=O)=O)cc2)cc1` [compound 6, 4-(2-(4-Oxo-2-((2-oxo-2-(p-tolyl)ethyl)thio)quinazolin-3(4H)-yl)ethyl)benzenesulfonamide], the Ki in assay [1] came out at 25.1 nM; in assay [2], 85.1 nM; in assay [3] it was 471 nM.

Turning to `CC(Sc1nc2ccccc2c(=O)n1CCc1ccc(S(N)(=O)=O)cc1)C(=O)c1ccccc1` (stereo not shown) [compound 7, 4-(2-(4-Oxo-2-((1-oxo-1-phenylpropan-2-yl)thio)quinazolin-3(4H)-yl)ethyl)benzenesulfonamide], the Ki in assay [1] turned out to be 63.2 nM; in assay [2] it was 76.8 nM; in assay [3], 978 nM.

Consider `NC(=O)CSc1nc2ccccc2c(=O)n1CCc1ccc(S(N)(=O)=O)cc1` [compound 8, 8], for which the Ki in assay [1] (mean of […] assays, errors ±[…]) worked out at 34.5 nM; in assay [2] (mean of […] assays, errors ±[…]), 2.4 nM.

As to `NS(=O)(=O)c1ccc(CCn2c(SCC(=O)Nc3ccccc3)nc3ccccc3c2=O)cc1` [compound 9, 9], the Ki in assay [1] is 27.3 nM; in assay [2] it was 38.4 nM; in assay [3] it was 460 nM.

For the compound `NS(=O)(=O)c1ccc(CCn2c(SCC(=O)Nc3ccc(Br)cc3)nc3ccccc3c2=O)cc1` [compound 10, 10], the Ki in assay [1] was determined as 64.9 nM; in assay [2] it was 61 nM; in assay [3], 697 nM.

Turning to `NS(=O)(=O)c1ccc(CCn2c(SCC(=O)Nc3ccc(Cl)cc3)nc3ccccc3c2=O)cc1` [compound 11, 11], the Ki was determined as 92 nM in assay [4], 66.8 nM in assay [1], 31.6 nM in assay [2] and 726 nM in assay [3].

Turning to `NS(=O)(=O)c1ccc(CCn2c(SCC(=O)Nc3ccc(F)cc3)nc3ccccc3c2=O)cc1` [compound 12, N-(4-fluorophenyl)-2-((4-oxo-3-(4-sulfamoylphenethyl)-3,4-dihydroquinazolin-2-yl)thio)acetamide], the Ki in assay [1] (mean of […] assays, errors ±[…]) stood at 12.7 nM; in assay [2] it was 8.7 nM.

For the compound `Cc1ccc(NC(=O)CSc2nc3ccccc3c(=O)n2CCc2ccc(S(N)(=O)=O)cc2)cc1` [compound 13, 13], the Ki in assay [1] was determined as 37.4 nM; in assay [2] it was 45.2 nM; in assay [3], 878 nM.

`COc1ccc(NC(=O)CSc2nc3ccccc3c(=O)n2CCc2ccc(S(N)(=O)=O)cc2)cc1` [compound 14, 14]: the Ki in assay [1] came out at 84 nM; in assay [2], 49.1 nM; in assay [3], 2570 nM.

For `CCOc1ccc(NC(=O)CSc2nc3ccccc3c(=O)n2CCc2ccc(S(N)(=O)=O)cc2)cc1` [compound 15, 15], the Ki in assay [1] stood at 35.9 nM; in assay [2] it was 59.7 nM; in assay [3], 3650 nM.

Turning to `CC(=O)c1ccc(NC(=O)CSc2nc3ccccc3c(=O)n2CCc2ccc(S(N)(=O)=O)cc2)cc1` [compound 16, 16], the Ki came out at 24.1 nM in assay [1], 22.5 nM in assay [2] and 1700 nM in assay [3].

For the compound `COc1cc(NC(=O)CSc2nc3ccccc3c(=O)n2CCc2ccc(S(N)(=O)=O)cc2)cc(OC)c1OC` [compound 17, 17], the values for the Ki in assay [1], in assay [2] and in assay [3] were 100 nM, 16.9 nM and 2670 nM, respectively.

In the case of `NS(=O)(=O)c1ccc(CCn2c(SCC(=O)NCc3ccc(F)cc3)nc3ccccc3c2=O)cc1` [compound 18, N-(4-fluorobenzyl)-2-((4-oxo-3-(4-sulfamoylphenethyl)-3,4-dihydroquinazolin-2-yl)thio)acetamide], the Ki in assay [1] was 256 nM; in assay [2] it was 113 nM; in assay [3], 2050 nM.

With `COc1ccc(CNC(=O)CSc2nc3ccccc3c(=O)n2CCc2ccc(S(N)(=O)=O)cc2)cc1OC` [compound 19, 19], the Ki in assay [1] was 145 nM; in assay [2], 97.3 nM; in assay [3], 5470 nM.

In the case of `CC(Sc1nc2ccccc2c(=O)n1CCc1ccc(S(N)(=O)=O)cc1)C(=O)Nc1ccc(Cl)cc1` (stereo not shown) [compound 20, 20], the Ki was found to be 18.6 nM in assay [1], 66.7 nM in assay [2] and 3630 nM in assay [3].
